The results in this text go back to patent US9586956B2, “Isoquinoline and naphthyridine derivatives” (Genentech, Inc., priority 2012, dated 2017).

Assay [1] concerns the target T1, purified human MAP4K4 kinase domain (Homo sapiens, UniProt O95819).
T1 construct: purified human MAP4K4 kinase domain
Description: MAP4K4 Inhibition Assay Protocol No. 2 (Z'-LYTE FRET). Format: biochemical. Particulars: Assay 2; 1 nM enzyme, 10 uM ATP, 60 min. The text has this:
The kinase activity of purified human MAP4K4 kinase domain was monitored using Z'-LYTE™ technology from Invitrogen to determine inhibition constants (IC50) of small molecule inhibitors. The Z'-LYTE™ biochemical assay employs a fluorescence-based, coupled-enzyme format and is based on the differential sensitivity of phosphorylated and non-phosphorylated peptides to proteolytic cleavage. In the primary reaction, the kinase transfers the gamma-phosphate of ATP to a single tyrosine, serine or threonine residue in a synthetic FRET-peptide. In the secondary reaction, a site-specific protease recognizes and cleaves non-phosphorylated FRET-peptides. Phosphorylation of FRET-peptides suppresses cleavage by the Development Reagent. Cleavage disrupts FRET between the donor (i.e., coumarin) and acceptor (i.e., fluorescein) fluorophores on the FRET-peptide, whereas uncleaved, phosphorylated FRET-peptides maintain FRET. To determine inhibition constants (IC50), compounds were serially diluted in DMSO and added to 10 uL kinase reactions containing 1 nM purified MAP4K4 enzyme, 2 uM ser/thr7 Z'-LYTE™ substrate, 10 uMATP, 50 mM Hepes (pH 7.5), 10 mM MgCl2, 1 mM EGTA, 0.01% Brij-35, and 2% DMSO. Reactions were incubated at room temperature in Corning Black 384 well plates (Corning#3573) for 60 minutes and stopped by the addition of 5 uL of Z'-LYTE™ development reagent A and incubated at room temp for 60 minutes. The plate is then analyzed on Perkin Elmer Envision by FRET mode. The high ratio of coumarin/fluorescein represents 0% phosphorylation rate while low ratio of coumarin/fluorescein represents 100% phosphorylation rate. The following equations are used to determine extent of peptide phosphorylation or inhibition: […]

The target in assay [2] is T1, purified human MAP4K4 kinase domain. Description: MAP4K4 Inhibition Assay Protocol No. 1 (Caliper LabChip, moesin-derived peptide phosphorylation). Format: biochemical. Particulars: Assay 1; 1 nM enzyme, 10 uM ATP, 45 min. In a few lines: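 1 nM enzyme with 1 uM 5-carboxyfluorescein-labelled moesin peptide and 10 uM ATP in 50 mM Hepes pH 7.2, 10 mM MgCl2, 2% DMSO, 45 min at room temperature, then EDTA stop. Phosphorylated fraction of peptide measured by microfluidic mobility shift; IC50 from four-parameter fit.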

By IC50 is commonly meant the concentration that gives 50% inhibition.

Each structure is given as a SMILES string.

T1 sequence (O95819 25-289 limits assumed): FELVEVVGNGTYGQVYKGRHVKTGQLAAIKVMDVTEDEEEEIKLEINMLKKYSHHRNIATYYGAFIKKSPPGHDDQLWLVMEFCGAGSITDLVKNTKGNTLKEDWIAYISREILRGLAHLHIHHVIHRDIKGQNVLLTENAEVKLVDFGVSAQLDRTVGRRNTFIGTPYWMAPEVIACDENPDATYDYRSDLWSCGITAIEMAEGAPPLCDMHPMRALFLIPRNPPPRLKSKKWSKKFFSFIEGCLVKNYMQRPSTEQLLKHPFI

`Nc1ncc(C(=O)N[C@H]2C[C@H](O)C2)c2ccc(-c3cccc(F)c3)nc12` [Example 14b, 8-amino-2-(3-fluorophenyl)-N-(trans-3-hydroxycyclobutyl)-1,7-naphthyridine-5-carboxamide]: the concentration for half-maximal inhibition (IC50) in assay [1] was determined as 0.0044 µM; in assay [2], 0.00419 µM.

Turning to `CCOC(=O)c1cnc(N)c2nc(-c3cccc(F)c3)ccc12` [Example 118, ethyl 8-amino-2-(3-fluorophenyl)-1,7-naphthyridine-5-carboxylate], the 50% inhibitory concentration (IC50) was 0.000648 µM in assay [1] and 0.000464 µM in assay [2].

As for `CCN1CC(NC(=O)c2cnc(N)c3cc(-c4cccc(F)c4)ccc23)C1` [Example 127, 1-amino-N-(1-ethylazetidin-3-yl)-7-(3-fluorophenyl) isoquinoline-4-carboxamide], the IC50 in assay [1] was 0.756 µM; in assay [2] it was 1.2 µM.

As for `COCC(=O)N1CC(NC(=O)c2cnc(N)c3cc(-c4cccc(F)c4)ccc23)C1` [Example 128, 1-amino-7-(3-fluorophenyl)-N-[1-(2-methoxyacetyl)azetidin-3-yl]isoquinoline-4-carboxamide], the half-maximal inhibitory concentration (IC50) in assay [1] amounted to 0.0724 µM; in assay [2], 0.0705 µM.

On to `CNCc1cnc(N)c2cc(-c3cccc(F)c3)ccc12` [Example 129, 7-(3-fluorophenyl)-4-(methylaminomethyl) isoquinolin-1-amine], for which the IC50 in assay [1] turned out to be 3 µM; in assay [2], 4.1 µM.

In the case of `Nc1ncc(C(=O)NC(CO)CNC(=O)NC2CC2)c2ccc(-c3cccc(F)c3)cc12` (stereo not drawn) [Example 130, 1-amino-N-[1-[(cyclopropyl-carbamoylamino)methyl]-2-hydroxy-ethyl]-7-(3-fluorophenyl) isoquinoline-4-carboxamide], the IC50 in assay [1] was determined as 0.0665 µM; in assay [2], 0.0609 µM.

For the molecule `CCNC(=O)N1CC(NC(=O)c2cnc(N)c3cc(-c4cccc(F)c4)ccc23)C1` [Example 131, 1-amino-N-[1-(ethylcarbamoyl)azetidin-3-yl]-7-(3-fluorophenyl) isoquinoline-4-carboxamide], the IC50 in assay [1] came out at 0.174 µM; in assay [2], 0.168 µM.

With `Nc1ncc(C(=O)NC2CN(C(=O)NC3CC3)C2)c2ccc(-c3cccc(F)c3)cc12` [Example 132, 1-amino-N-[1-(cyclopropyl-carbamoyl)azetidin-3-yl]-7-(3-fluorophenyl)isoquinoline-4-carboxamide], the figures for the half-inhibitory concentration (IC50) in assay [1] and in assay [2] were 0.191 µM and 0.18 µM, respectively.

In the case of `CCNC(=O)NCC(CO)NC(=O)c1cnc(N)c2cc(-c3cccc(F)c3)ccc12` (stereo not drawn) [Example 133, 1-amino-N-[1-[(ethylcarbamoyl-amino)methyl]-2-hydroxy-ethyl]-7-(3-fluorophenyl) isoquinoline-4-carboxamide], the concentration for half-maximal inhibition (IC50) in assay [1] was 0.0919 µM; in assay [2] it was 0.0602 µM.
